Source: PMC12403558, “Novel enzymes involved in the biotransformation of oxytetracycline by Arthrobacter nicotianae OTC-16” (Microbiology Spectrum, 2025)

Columns and labels:
[1] = molecular target: T1, prpD (Glutamicibacter nicotianae, UniProt A0ABQ0RQ59); assay: OTC depletion by HPLC after adding […] mg expressed protein extract; assay type: biochemical; settings: LB broth without strain OTC-16, 30 C, 180 rpm, 4 days, product not identified, not described as purified
T1 construct: gene ANI01nite_31520; E. coli BL21(DE3) soluble extract, no purification described; about 55 kDa; primers encode N-term MINHPVR, C-term PKGLF
T1 sequence (A0ABQ0RQ59 entry or part of it): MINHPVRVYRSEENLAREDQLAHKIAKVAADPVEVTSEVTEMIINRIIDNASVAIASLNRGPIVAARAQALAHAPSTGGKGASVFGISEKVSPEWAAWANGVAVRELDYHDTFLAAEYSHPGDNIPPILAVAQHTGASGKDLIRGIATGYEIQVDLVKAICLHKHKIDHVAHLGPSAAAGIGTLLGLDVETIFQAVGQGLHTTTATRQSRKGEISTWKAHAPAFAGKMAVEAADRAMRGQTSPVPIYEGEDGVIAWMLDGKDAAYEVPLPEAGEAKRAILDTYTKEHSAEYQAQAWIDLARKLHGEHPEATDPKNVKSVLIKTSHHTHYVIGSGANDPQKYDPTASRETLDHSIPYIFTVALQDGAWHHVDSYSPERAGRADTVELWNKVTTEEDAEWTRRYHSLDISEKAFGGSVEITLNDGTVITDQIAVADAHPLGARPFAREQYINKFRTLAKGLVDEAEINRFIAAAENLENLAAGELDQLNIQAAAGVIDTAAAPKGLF

[2] = molecular target: T2, uaZ (Glutamicibacter nicotianae, UniProt A0ABQ0RHS3); assay: as above; assay type: biochemical; settings: LB broth without strain OTC-16, 30 C, 180 rpm, 4 days, product not identified, not described as purified
T2 construct: gene ANI01nite_05670; E. coli BL21(DE3) soluble extract, no purification described; about 34 kDa; primers encode N-term MTTEITAPAD, C-term IWANIPAFI
T2 sequence (A0ABQ0RHS3 entry or part of it): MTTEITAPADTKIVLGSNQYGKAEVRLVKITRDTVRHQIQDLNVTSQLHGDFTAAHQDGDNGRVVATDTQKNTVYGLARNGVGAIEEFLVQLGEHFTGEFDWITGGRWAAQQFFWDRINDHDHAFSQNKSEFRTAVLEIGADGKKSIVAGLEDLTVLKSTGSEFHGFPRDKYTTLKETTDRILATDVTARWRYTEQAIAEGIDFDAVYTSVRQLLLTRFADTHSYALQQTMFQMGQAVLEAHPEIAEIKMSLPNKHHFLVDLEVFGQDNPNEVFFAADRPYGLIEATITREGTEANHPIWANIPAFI

CN(C)[C@@H]1C(=O)C(C(N)=O)=C(O)[C@@]2(O)C(=O)C3=C(O)c4c(O)cccc4[C@@](C)(O)[C@H]3[C@H](O)[C@@H]12 [oxytetracycline]
OTC depletion by HPLC after adding 0.1 mg expressed protein extract [1]: the degradation proteins prpD and uaZ exhibited degradation effects on OTC | OTC depletion by HPLC after adding 0.1 mg expressed protein extract [2]: the degradation proteins prpD and uaZ exhibited degradation effects on OTC
